Measurements from patent US7361633B2, “Screening method and anti-tumor drug candidate obtained therefrom” (Ardana Bioscience Limited, priority 2002, dated 2008).
“Also recorded” adds a separate entry of the source.

Tests used:
[1] = test system: HEK293 cells stably expressing the Type I GnRHR (SCL60); assay: Anti-proliferative effect on SCL60 cells, viable cell count after 5 days; type: cell-based, human; details: 5 days continuous treatment, trypan blue exclusion
Description: An identical methodology of measuring cell growth was employed as in FIG. 1.
(§1) Each cell type was plated at an initial minimal confluency (10-20%) to allow for 5 days of normal continual cell growth that would not result in 100% cell confluency by day 5. Each ligand was incubated, in triplicate for every experimental concentration, with the cell monolayers for five days with replacement of the ligand every 12 h. At the end of the stimulation period the number of viable cells was estimated by their capacity to prevent uptake of Trypan Blue stain.
We further investigated the nature of the ligand-receptor specificity of the anti-proliferative effects of GnRH receptor systems by studying our ligand panel effects upon a model cell background, i.e. SCL60 HEK293 cells stably expressing the rat Type I GnRHR. […] We attribute this greater effect of the GnRHR ligands upon the SCL60 cells to the much greater level of receptor expression in the SCL60 cells.

[2] = test system: human JEG-3 choriocarcinoma cells; assay: Anti-proliferative effect on JEG-3 cells, viable cell count after 5 days; type: cell-based; details: 5 days continuous treatment, trypan blue exclusion
Description: (§2) Low cell density JEG-3 cell subcultures were treated for 5 days continuously with the indicated doses of GnRH I (a), GnRH II (b), antagonist 135-18 (c) or antagonist 135-25 (d) added directly to Dulbecco's modified Eagles medium supplemented with 10% FCS, glutamine and penicillin/streptomycin. Ligands were replenished every 24 h. At the end of the stimulation period cells were removed from the growth plates with trypsin and mixed with trypan blue dye (enters non-viable cells). Only viable cells were therefore counted using a haemocytometer in quadruplicate for each ligand dose. The bars in each histogram represent the mean±s.e. mean of n=4 experiments.
as §1

ERK1/2 [3] = assay: ERK1/2 phosphorylation immunoblot in BPH-1 cells; type: cell-based, human; details: for extent of ERK1/2 activation: FIG. 5 panel c
Description: The panel depicts a representative anti-phospho-ERK1/2 w-c lysate immunoblot of stimulated BPH-1 cell extracts. […] Each bar of the histogram represents the mean±s.e. mean of three to four experimental replicates. […] Panel c) depicts the extent of ERK1/2 activation in BPH-1 cells induced by stimulation with GnRH I, II, Ant 135-25 and Ant 135-18. […] Each bar of the histogram represents the mean± s.e. mean of three to four experimental replicates.

ERK1/2 [4] = assay: ERK1/2 phosphorylation immunoblot in JEG-3 cells; type: cell-based, human; details: for extent of ERK1/2 phosphorylation (activation): 100 nM, 10 minutes
p38α = assay: Phosphorylation of immunoprecipitated myc-p38α in BPH-1 cells; type: cell-based, human; details: for activation (phosphorylation) of myc-p38α / effect of PTX pre-exposure on p38α activation: BPH-1 cells; for activation (phosphorylation) of myc-p38α: 100 nM; for effect of PTX pre-exposure on p38α activation: PTX 16 h 200 ng/ml
Description: The activation of two other forms of mitogen-activated protein kinase (MAPK) was studied in JEG-3 and BPH-1 cells by overexpressing myc-tagged constructs of JNK2 or p38α. Immunoprecipitation of these constructs after GnRHR-ligand stimulation of either cell line allowed the degree of kinase activation to be assessed using antisera specific for the active, phosphorylated, form of the kinase. […] In both panel a and b, the dose of GnRH I employed was 100 nM. The respective histograms in each panel represent the mean±s.e. mean of three experimental replicate time courses.
The histogram below depicts the mean±s.e. mean of three experimental replicates of the above western blot. […] The histograin below depicts the mean±s.e. mean of three experimental replicates of the above western blot.
Stimulation of JNK in JEG-3 cells and p38 in BPH-1 cells and its sensitivity to pre-exposure to PTX was assessed by measuring the degree of activating phosphorylation of immunoprecipitated myc-JNK2 or myc-p38α. […] The histograms in panels b and c depict the mean±s.e. mean of three experimental replicates of the above western blot (panel a) experiments. Panel d depicts an identical experiment to that in panel a except that it is the phosphorylation status of immunoprecipitated myc-p38α that is being measured. […] The histograms in panels e and f depict the mean±s.e. mean of three experimental replicates of the above western blot (panel d) experiments.
To further investigate the validity of the observed SAPK activation we transfected the tumour cell lines with myc-tagged JNK2 or p38α MAPK isoforms, stimulated the cells with GnRH and then immunoprecipitated with anti-myc sera and western blotted the immunoprecipitates for total JNK/p38 protein and active JNK/p38.

[5] = test system: human benign prostate hyperplastic (BPH-1) cells; assay: Anti-proliferative effect on BPH-1 cells, viable cell count after 5 days; type: cell-based; details: 5 days continuous treatment, trypan blue exclusion
Description: as §2, with “density BPH-1” for “density JEG-3”, “(b), Ant” for “(b), antagonist”, “or Ant” for “or antagonist”, “to RPMI 1640” for “to Dulbecco's modified Eagles”, “removed form” for “removed from”, “plates by” for “plates with”
as §1
Employing an identical growth and stimulation methodology to that described in the previous paragraph and in FIG. 1 we exposed the hyperplastic cell line, BPH-1, to the same panel of GnRH ligands and antagonistic analogues (FIG. 2). Reminiscent of FIG. 1 both endogenous GnRH agonists exert a similar mode of action with respect to their dose-dependent inhibition of BPH-1 cell growth over the five day stimulation period.

| Compound | anti-proliferative effect (viable cell number) [1] | anti-proliferative effect (viable cell number) [2] | ERK1/2 activation, dose dependence (ERK1/2 [3]; FIG. 5 panel a) | extent of ERK1/2 activation (ERK1/2 [3]) | extent of ERK1/2 phosphorylation (activation) (ERK1/2 [4]) | activation (phosphorylation) of myc-p38α (p38α) | effect of PTX pre-exposure on p38α activation (p38α) | anti-proliferative effect (viable cell number) [5] | anti-proliferative effect (viable cell number) ([1]; listed as Ant135-25) | anti-proliferative effect (viable cell number) ([1]; listed as Ant135-18) | anti-proliferative effect (viable cell number) ([2]; listed as Ant135-18) | extent of ERK1/2 activation (ERK1/2 [3]; listed as Ant135-18) | extent of ERK1/2 phosphorylation (activation) (ERK1/2 [4]; listed as Ant135-18) | activation (phosphorylation) of myc-p38α (p38α; listed as Ant135-18) | anti-proliferative effect (viable cell number) ([5]; listed as Ant135-18) | effect on GnRH-mediated ERK activation (ERK1/2 [3]; 1 μM SB203580, data not shown) | effect on GnRH I activation of ERK1/2 (ERK1/2 [4]; 20 μM SB203580, data not shown) | effect on GnRH-mediated activation of p38α (p38α) |
| --- | --- | --- | --- | --- | --- | --- | --- | --- | --- | --- | --- | --- | --- | --- | --- | --- | --- | --- |
| GnRH I: Gonadotropin-Releasing Hormone, a decapeptide; the original form of GnRH, re-named GnRH I | greater anti-proliferative efficacy; also recorded: dramatic reduction in the cells growth rate and significant loss of total cell number | potent and dose-dependent anti-proliferative effect; also recorded: clear dose-response relationships for the inhibition of cellular growth | strong and dose-dependent activation of ERK1/2 | A similar pattern to JEG-3 of ligand activation | activate ERK1/2 to a similar extent | significant activation of myc-p38α; also recorded: effectively activate p38α; also recorded: protracted activation of the immunoprecipitated myc-p38α | acutely sensitive to the pre-exposure of PTX | potent and dose-dependent anti-proliferative effect; also recorded: more potent that GnRH II in its capacity to arrest cell growth | – | – | – | – | – | – | – | – | – | – |
| Ac-D-Nal(2)-D-4-ClPhe-D-Pal-Ser-1-MePal-D-IsopropylLys-Leu-IsopropylLys-Pro-D-AlaNH2 [Ant 135-25] | greater anti-proliferative efficacy | clear dose-response relationships for the inhibition of cellular growth | – | A similar pattern to JEG-3 of ligand activation | activate ERK1/2 to a similar extent | effectively activate p38α | acutely sensitive to the pre-exposure of PTX | anti-proliferative effect upon BPH-1 cells with a similar potency to that of GnRH I | nearly an as efficacious action as either GnRH I or GnRH II | – | – | – | – | – | – | – | – | – |
| Ac-D-Nal(2)-D-4-ClPhe-D-Pal-Ser-Ile-D-IsopropylLys-Leu-IsopropylLys-Pro-D -AlaNH2 [Ant 135-18] | low efficacy compared to the other ligands | much lower potency and efficacy compared to 135-25, GnRH I and II | – | A similar pattern to JEG-3 of ligand activation | least effective | does not | – | much lower potency and efficacy compared to Ant 135-25 and GnRH I | – | relatively ineffective at inhibiting the SCL60 cell proliferation | failed to demonstrate an anti-proliferative effect of a similar magnitude to that generated by GnRH I, GnRH II or Ant135-25 | considerably less | considerably less | dramatically lower efficacy than GnRH I or Ant 135-25 | low ant-proliferative potency | – | – | – |
| C[S+]([O-])c1ccc(-c2nc(-c3ccncc3)c(-c3ccc(F)cc3)[nH]2)cc1 (stereo not shown) [SB203580] | – | – | – | – | – | – | – | – | – | – | – | – | – | – | – | no significant effect | not significantly affecting the activation of ERK1/2 MAPKs | significantly blunted the GnRH-mediated activation of p38α |
